Data reported in patent publication US8912209B2, “Rock inhibitors” (Amakem NV, priority 2010, dated 2014).
Where two headings read alike, the source gives them in different places.

Experiments:
[1] = Stability towards drug metabolizing enzymes in lung S9; assay type: in vitro ADME; details: human, lung S9 from smokers with NADPH, UDPGA, PAPS and GSH, read-out: t½ human lung S9
Experimental: i) C.2.2. Stability Towards Drug Metabolizing Enzymes in Lung S9
A 1 μM solution of the ROCK inhibitors is incubated with a reaction mixture containing lung S9 (from smokers) as well as the cofactors NADPH, UDPGA, PAPS and GSH. Samples are collected at 0, 15, 30 and 60 minutes post incubation. Negative control samples incubated with ROCK inhibitors and S9 fraction in the absence of cofactors are run in parallel. By using LC-MS/MS analysis, the percent of ROCK compounds remaining at each time point, the metabolic half-life of the ROCK compounds (expressed in minutes) and the metabolic half-life of the control compounds are determined.

[2] = Stability assay in human plasma; assay type: in vitro ADME; details: 1 μM in human plasma, LC-MS/MS; read-out: t½ human plasma
Experimental: (§1) C.2.1. Stability Assay in Human and/or Rat Plasma
(§2) Compounds are incubated at a concentration of 1 μM in rat (mice or rabbit) or human plasma. Samples are taken at fixed time points and the remnant of compound is determined by LC-MS/MS after protein precipitation. Half life is expressed in minutes.

[3] = Stability assay in rat plasma; assay type: in vitro ADME; details: 1 μM in rat plasma, LC-MS/MS; read-out: t½ rat plasma
Experimental: as §1, §2

ROCKα/ROCKII = biological target: T1, ROCKα/ROCKII (Homo sapiens, UniProt O75116); experiment: ROCK inhibition, Method 2 fluorescence polarization (FP) assay, ROCK IMAP Kit; assay type: biochemical; details: 10 μM ATP, read-out: IC50 Meth. 2
T1 construct: purchased Upstate Biotechnology 14-451

ROCK II = biological target: T2, ROCK II (Homo sapiens, UniProt O75116); experiment: ROCK II kinase inhibition, Method 1 Proqinase setup (33P radioisotopic protein kinase assay); assay type: biochemical; details: 33P radioisotopic assay, 1 μM ATP, read-out: IC50 Meth. 1
T2 construct: purchased Proqinase
Experimental: A ^33P radioisotopic protein kinase assay is used to determine the IC50 for inhibiting ROCK II. A final 50 μl reaction cocktail, containing 60 mM HEPES-NaOH (pH 7.5), 3 mM MgCl2, 3 mM MnCl2, 3 μM Na-orthovanadate, 1.2 mM DTT, 1 μM ATP, 50 μg/ml PEG20.000, 1% (v/v) DMSO, 1 μM ATP (approx. 3×10^5 cpm ^33P-γ-ATP), the substrate (Substrate: S6 peptide—2000 ng/well) and recombinant protein kinase (0.5 nM-2.5 ng/well) is mixed on a shaker and incubated at 30° C. for 80 minutes. The reaction is stopped by the addition of 50 μl of a 2% solution of H3PO4 and mixed on a shaker. After washing twice with 200 μl of a 0.9% solution of NaCl, the dry plate is counted.

[4] = Stability assay in rabbit aqueous humor; assay type: in vitro ADME; details: 1 μM in rabbit aqueous humor, LC-MS/MS; read-out: t½ rabbits AH
Experimental: i) C.2.3. Stability Assay in Rabbit Aqueous Humor
Compounds are incubated at a concentration of 1 μM in rabbit aqueous humor (AH). Samples are taken at fixed time points and the remnant of compound is determined by LC-MS/MS after protein precipitation.

Guinea pig trachea rings = experiment: Smooth muscle relaxing activity in organ baths of guinea pig trachea (carbachol); details: Cavia porcellus; guinea pig trachea rings contracted with carbachol
Experimental: C.1.3. Smooth Muscle Relaxing Activity of Generated Soft ROCK Inhibitors In Vitro Using Organ Baths of Guinea Pig Trachea
Guinea pig trachea rings are prepared and incubated with a fixed concentration of the bronchoconstrictive agent carbachol. Then, increasing concentrations of the soft ROCK inhibitors are added and the contractive properties of the trachea measured for each of the compound concentrations. The study set-up allows the determination of an IC50, represented by the concentration of compound that induces a force equal to 50% of that observed for the vehicle-treated trachea.
In addition retention on the target is assessed using the above described organ baths of guinea pig trachea. In brief, upon induction of maximal relaxation with the ROCK inhibitors, trachea rings are thoroughly washed. Then, carbachol is added again and contractive properties are measured to determine whether the inhibitory activity of the ROCK inhibitors is prolonged upon the washout. A prolonged inhibitory activity after the washout is highly indicative for a prolonged retention of the compound at the lungs in vivo.

LPS-stimulated PBMC = experiment: Cellular assay using LPS-stimulated PBMC, TNF release (ELISA), in the absence and presence of plasma; assay type: cell-based
Text: C.1.2. Activity Against ROCK in a Cellular Assay Using LPS-Stimulated PBMC in the Absence and Presence of Plasma
To ensure the stimulation of PBMC by LPS, the medium is enriched with LPS-binding protein (LBP) that will facilitate the delivery of LPS to the CD14 receptor and enhance the LPS-induced immune response. Cytokines secreted by activated PBMC include TNF, which is detected by means of a colorimetric ELISA. In the presence of an active compound, the release of TNF is inhibited in a concentration-dependent manner. Subsequently a control assay using the same set up in the presence of plasma is included.

T1 sequence (O75116 whole entry): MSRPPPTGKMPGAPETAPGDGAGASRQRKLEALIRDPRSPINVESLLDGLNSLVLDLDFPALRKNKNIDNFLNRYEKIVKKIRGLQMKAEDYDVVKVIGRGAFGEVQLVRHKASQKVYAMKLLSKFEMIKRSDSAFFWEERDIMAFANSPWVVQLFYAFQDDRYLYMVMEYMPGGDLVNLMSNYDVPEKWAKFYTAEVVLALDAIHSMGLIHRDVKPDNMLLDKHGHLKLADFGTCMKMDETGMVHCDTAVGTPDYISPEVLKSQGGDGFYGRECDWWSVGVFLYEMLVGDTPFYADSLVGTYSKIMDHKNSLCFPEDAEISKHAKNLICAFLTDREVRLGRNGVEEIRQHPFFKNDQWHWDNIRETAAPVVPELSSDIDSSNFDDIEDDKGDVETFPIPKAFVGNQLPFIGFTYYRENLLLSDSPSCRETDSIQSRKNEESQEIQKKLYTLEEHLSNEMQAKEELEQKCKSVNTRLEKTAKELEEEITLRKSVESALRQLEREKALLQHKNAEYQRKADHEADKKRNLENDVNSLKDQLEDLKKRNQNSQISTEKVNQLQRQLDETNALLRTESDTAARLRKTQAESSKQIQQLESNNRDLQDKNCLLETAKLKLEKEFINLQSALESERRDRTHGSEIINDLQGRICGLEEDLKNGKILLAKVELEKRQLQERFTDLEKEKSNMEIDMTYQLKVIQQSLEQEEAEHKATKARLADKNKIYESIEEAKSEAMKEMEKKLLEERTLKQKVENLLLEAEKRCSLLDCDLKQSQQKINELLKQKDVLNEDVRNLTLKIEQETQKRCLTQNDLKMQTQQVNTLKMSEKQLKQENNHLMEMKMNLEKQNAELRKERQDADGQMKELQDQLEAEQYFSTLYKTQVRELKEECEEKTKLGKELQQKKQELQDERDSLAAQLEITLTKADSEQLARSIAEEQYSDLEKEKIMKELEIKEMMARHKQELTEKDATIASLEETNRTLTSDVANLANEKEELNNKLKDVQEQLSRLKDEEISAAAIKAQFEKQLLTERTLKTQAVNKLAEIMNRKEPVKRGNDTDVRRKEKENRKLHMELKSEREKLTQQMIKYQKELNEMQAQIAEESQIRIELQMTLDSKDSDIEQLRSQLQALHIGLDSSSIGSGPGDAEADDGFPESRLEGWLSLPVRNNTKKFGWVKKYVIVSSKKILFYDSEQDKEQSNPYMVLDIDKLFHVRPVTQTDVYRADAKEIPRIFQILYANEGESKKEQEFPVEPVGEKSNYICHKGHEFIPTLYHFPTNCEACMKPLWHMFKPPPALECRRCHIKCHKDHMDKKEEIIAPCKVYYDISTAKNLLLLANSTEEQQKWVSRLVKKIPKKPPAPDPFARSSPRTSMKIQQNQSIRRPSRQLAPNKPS
T2 sequence (O75116 whole entry): as above

Compound	half-life at 1 μM [1]	half-life at 1 μM [2]	half-life at 1 μM [3]	IC50 (ROCKα/ROCKII)	IC50 (ROCK II)	half-life at 1 μM [4]	IC50 (Guinea pig trachea rings)	IC50 (LPS-stimulated PBMC; in the presence of plasma, read-out: IC50 in the presence of plasma)	IC50 (LPS-stimulated PBMC; without plasma, read-out: IC50 (assay without plasma))
CCCOC(=O)c1cc(-c2cc(C(=O)Nc3ccncc3)ccc2C(C)N)c[nH]1 (stereo not shown) [Compound 169, 4-[2-(1-Amino-ethyl)-5-(pyridin-4-ylcarbamoyl)-phenyl]-1H-pyrrole-2-carboxylic acid propyl ester]	–	–	–	–	< 100 nM	> 60 min	–	–	–
CC(N)c1ccc(C(=O)Nc2ccncc2)cc1-c1cccc(C(=O)OCCO)c1 (stereo not shown) [Compound 65, 2′-(1-Amino-ethyl)-5′-(pyridin-4-ylcarbamoyl)-biphenyl-3-carboxylic acid 2-hydroxy-ethyl ester]	> 60 min	–	–	< 100 nM	< 100 nM	–	–	–	–
CCSC(=O)c1cccc(-c2cc(C(=O)Nc3ccncc3)ccc2CN)c1 [Compound 97, 2′-Aminomethyl-5′-(pyridin-4-ylcarbamoyl)-biphenyl-3-carbothioic acid S-ethyl ester]	–	44 min	38 min	–	< 100 nM	–	–	–	–

More lines, main results first:

half-life at 1 μM [1]	half-life at 1 μM [2]	half-life at 1 μM [3]	IC50 (ROCKα/ROCKII)	IC50 (ROCK II)	half-life at 1 μM [4]	IC50 (Guinea pig trachea rings)	Compound	IC50 (LPS-stimulated PBMC; in the presence of plasma, read-out: IC50 in the presence of plasma)	IC50 (LPS-stimulated PBMC; without plasma, read-out: IC50 (assay without plasma))
> 60 min	9.8 min	4.5 min	< 100 nM	100 to 1000 nM	–	–	CC(N)c1ccc(C(=O)Nc2ccncc2F)cc1-c1cccc(C(=O)OCC2CCCCO2)c1 (stereo not shown) [Compound 47, 2′-(1-Amino-ethyl)-5′-(3-fluoro-pyridin-4-ylcarbamoyl)-biphenyl-3-carboxylic acid tetrahydro-pyran-2-ylmethyl ester]	–	–
53 min	1.9 min	5.8 min	< 100 nM	100 to 1000 nM	> 60 min	500 nM	CC(N)c1ccc(C(=O)Nc2ccncc2F)cc1-c1cccc(C(=O)OCC2CCCO2)c1 (stereo not shown) [Compound 46, 2′-(1-Amino-ethyl)-5′-(3-fluoro-pyridin-4-ylcarbamoyl)-biphenyl-3-carboxylic acid tetrahydro-furan-2-ylmethyl ester]	> 10000 nM	120 nM
